Results from patent publication US20130184272A1, “DIABETES THERAPEUTIC AGENT” (TAKEDA PHARMACEUTICAL COMPANY LIMITED, priority 2010, published 2013).

Legend:
[1] = system: myogenin; test: Muscle-related gene expression in myoblast: myogenin; assay type: cell-based, Mouse; conditions: for Myogenin/36B4 expression level: 10 μM, 1 day, relative value
[2] = system: creatine kinase (CKM); test: Muscle-related gene expression in myoblast: creatine kinase (CKM); assay type: cell-based, Mouse; conditions: for CKM/36B4 expression level: 10 μM, 1 day, relative value
[3] = system: Male FisherF344 rats fed with a high-fat diet; test: Antiobesity action and dyslipidemia improving effect in high-fat diet-loaded rat; assay type: in vivo
Experimental: Male FisherF344 rats (CLEA Japan, Inc.) fed with a high-fat diet (45 kcal % fat, D12451, research diet) for 38 weeks from 5 weeks of age were used. They were bred with a powder high-fat diet (D12451M) for 4 weeks for acclimation, measured for body weight, body composition, amount of ingestion and plasma component, and divided into 3 groups (6 per group) without difference between them. The plasma components (total cholesterol, triglyceride, glucose concentration) were measured by HITACHI automatic analyzer 7070. As the body composition, total fat mass, body fat percentage, lean body mass of lower leg, and visceral fat mass were measured by X-ray CT apparatus (LCT-100A, LaTheta). The compound of Reference Example 1 was suspended in aqueous methylcellulose solution and orally administered repeatedly to 2 groups of the rats divided into 3 groups at 0.03 mg/kg or 0.1 mg/kg once a day for 14 days. A 0.5% aqueous methylcellulose solution was orally administered similarly to the remaining one group and used as a control group. On the administration completion day, the blood was drawn again from the tail vein, and plasma levels of total cholesterol, triglyceride, glucose, insulin and leptin, and body weight and body composition (total fat mass, body fat percentage, lean body mass of lower leg, visceral fat mass) were measured. The amount of ingestion was calculated from the amount of the feed given and the amount left, and the total of the test period was calculated. The numerical values in Table 11 and Table 12 show mean±standard deviation at n=5-6 (n is the number of rats).

[4] = system: C3H10T1/2 cells; test: Adipocyte differentiation suppressive action; assay type: cell-based; conditions: for cell number (number of nucleus/visual field) / lipid droplet area (lipid droplet stained area/cell number): DM, 9 days
Experimental: C3H10T1/2 cells (Dainippon Pharmaceutical Co., Ltd.) were cultured in a growth medium until confluence. 1 μM dexamethasone, 0.5 mM 3-isobutyl-1-methylxanthine and 5 μg/mL insulin were added to the medium, and the cells were cultured for 3 days. The medium was exchanged with a growth medium added with 4 μg/mL insulin and the cells were cultured for 3 more days and cultured in a growth medium for 3 days. When the compound was added, it was added for 9 days after reaching confluence and the cells were cultured. The cells were fixed with 3.7% formalin, lipid droplet was stained with 100 nM BODIPY 493/503 (Molecular Probes), nucleus was stained with 2 μM Hoechst33258 (Acros Organics), and analyzed by IN Cell analyzer (GE Healthcare). The data of Table 15 show mean±standard deviation at n=4 (n is the number of samples).

[5] = system: C/EBPα; test: Adipocyte-related gene expression level: C/EBPα; assay type: cell-based
Experimental: (§1) In the same manner as in Example 10, the cells were cultured, and total RNA was extracted using Rneasy96 kit (Qiagen) from the cell immediately before and 6 days after addition of […] of the compound of Reference Example 1. cDNA was prepared from the total RNA using TaqMan reverse transcription reagent (Applied Biosystems), quantitative PCR was performed by ABI PRISM7000 or 7000 using TaqMan Universal PCR master mix (Applied Biosystems) and commercially available primers, and the expression level of each gene was determined. The commercially available primers used were as follows. • C/EBPα (Mm00514283_s1, TaqMan Gene Expression Assays, Applied Biosystems) • C/EBPβ (Mm00843434_s1, TaqMan Gene Expression Assays, Applied Biosystems) • KLF15 (Mm00517792_m1, TaqMan Gene Expression Assays, Applied Biosystems) • PPARγ (Mm00440945_m1, TaqMan Gene Expression Assays, Applied Biosystems)
(§2) The expression level was amended by the amount of 36B4 (Takeda Pharmaceutical Company Limited) in the same manner as in Example 3, and the relative values to the value immediately before addition of each gene compound as 1 are shown in Table 16. The data in Table 16 show mean±standard deviation at n=3-4 (n is the number of samples).

[6] = system: C/EBPβ; test: Adipocyte-related gene expression level: C/EBPβ; assay type: cell-based
Experimental: as §1, §2

[7] = C2C12 cells cultured in a differentiation medium
[8] = 0.03 mg/kg oral once a day, 14 days
[9] = 0.1 mg/kg oral once a day, 14 days
[10] = 10 μm [sic] of compound, 6 days after addition, value immediately before addition = 1

Structure (SMILES): Cc1ncccc1Oc1sc(C(N)=O)c2c1-c1c(cnn1C)CC2 [Ref. Ex. 1, 1-methyl-8-[(2-methylpyridin-3-yl)oxy]-4,5-dihydro-1H-thieno[3,4-g]indazole-6-carboxamide]
- expression of myogenin (in words) [1, 7]: promoted
- Myogenin/36B4 expression level ([1]; DM (differentiation medium)): 3.81 ± 0.55
- Myogenin/36B4 expression level ([1]; GM (growth medium)): 0.03 ± 0.00
- expression of creatine kinase (in words) [2, 7]: promoted
- CKM/36B4 expression level ([2]; DM (differentiation medium)): 4.84 ± 1.08
- CKM/36B4 expression level ([2]; GM (growth medium)): 0.03 ± 0.01
- amount of ingestion (g/2 weeks) [3, 8]: 165.8 ± 13.9 g/2 weeks
- body fat percentage, change rate (%) [3, 8]: 3.5 ± 1.5 %
- body weight [3, 8]: 460.8 ± 15.3 g
- body weight, amount of change [3, 8]: -3.8 ± 7.5 g
- lean body mass (g) of lower leg [3, 8]: 82.9 ± 5.2 g
- lean body mass of lower leg, amount of change [3, 8]: 8.4 ± 1.7 g
- plasma glucose [3, 8]: 142.3 ± 5.6 mg/dL
- plasma insulin [3, 8]: 5.2 ± 1.0 ng/mL
- plasma leptin [3, 8]: 1.2 ± 0.4 ng/dL
- plasma total cholesterol [3, 8]: 102.3 ± 12.6 mg/dL
- plasma triglyceride [3, 8]: 242.4 ± 92.5 mg/dL
- total fat mass [3, 8]: 138.0 ± 16.6 g
- total fat mass, amount of change [3, 8]: -17.5 ± 8.8 g
- visceral fat mass [3, 8]: 53.8 ± 6.1 g
- visceral fat mass, amount of change [3, 8]: -4.3 ± 3.4 g
- amount of ingestion (g/2 weeks) [3, 9]: 127.9 ± 21.2 g/2 weeks
- body fat percentage (%) [3, 9]: 26.9 ± 2.6 %
- body fat percentage, change rate (%) [3, 9]: −7.1 ± 1.1 %
- body weight [3, 9]: 446.5 ± 38.1 g
- body weight, amount of change [3, 9]: -19.5 ± 11.0 g
- lean body mass (g) of lower leg [3, 9]: 84.5 ± 6.9 g
- lean body mass of lower leg, amount of change [3, 9]: 9.8 ± 4.2 g
- plasma glucose [3, 9]: 146.3 ± 5.9 mg/dL
- plasma insulin [3, 9]: 2.8 ± 1.1 ng/mL
- plasma leptin [3, 9]: 0.6 ± 0.4 ng/dL
- plasma total cholesterol [3, 9]: 77.3 ± 9.6 mg/dL
- plasma triglyceride [3, 9]: 100.1 ± 43.1 mg/dL
- total fat mass [3, 9]: 120.5 ± 18.2 g
- total fat mass, amount of change [3, 9]: -38.1 ± 6.7 g
- visceral fat mass [3, 9]: 47.2 ± 9.0 g
- visceral fat mass, amount of change [3, 9]: -11.0 ± 2.9 g
- body weight (in words) ([3]; administration at 0.1 mg/kg): clear body weight decreasing action
- cell number (number of nucleus/visual field) ([4]; compound 0.1 nM): 303 ± 28
- lipid droplet area (lipid droplet stained area/cell number) ([4]; compound 0.1 nM): 9625
- cell number (number of nucleus/visual field) ([4]; compound 1 nM): 295 ± 15
- lipid droplet area (lipid droplet stained area/cell number) ([4]; compound 1 nM): 5703
- cell number (number of nucleus/visual field) ([4]; compound 10 nM): 318 ± 9
- lipid droplet area (lipid droplet stained area/cell number) ([4]; compound 10 nM): 2010
- cell number (in words) ([4]; adipocyte differentiation): without affecting
- intracellular lipid accumulation (in words) ([4]; adipocyte differentiation): decreased
- C/EBPα expression level (amended by 36B4) [5, 10]: 1.6 ± 0.5
- expression level of C/EBPα (in words) ([5]; C3H10T1/2 cell): decreased
- C/EBPβ expression level (amended by 36B4) [6, 10]: 1.3 ± 0.5
- expression level of C/EBPβ (in words) ([6]; C3H10T1/2 cell): decreased
